# Assay results reported in patent US10508104B2, “6-hydroxy-5-(phenyl/heteroarylsulfonyl)pyrimidin-4(1H)-one as APJ agonists” (Bristol-Myers Squibb Company, priority 2016, dated 2019).
# pEC50: −log10 of the molar value.
# Target: human APJ receptor (Homo sapiens (Human), UniProt P35414)
# Assay: Intracellular cAMP accumulation assay (APJ hcAMP, HTRF)
# Format: cell-based
# Conditions: HEK293 cells stably expressing human APJ receptor; inhibition of forskolin-mediated cAMP production; read-out: Human APJ cAMP EC50 Potency range
# How it was run: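 HEK293 cells stably expressing human APJ, 5,000 per well, incubated 30 min at rt with compound, […] and 2 μM forskolin. cAMP measured by HTRF against a cAMP standard curve as inhibition of forskolin-driven production. EC50 from variable-slope sigmoidal fit.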
# Sequence of human APJ receptor (P35414 whole entry): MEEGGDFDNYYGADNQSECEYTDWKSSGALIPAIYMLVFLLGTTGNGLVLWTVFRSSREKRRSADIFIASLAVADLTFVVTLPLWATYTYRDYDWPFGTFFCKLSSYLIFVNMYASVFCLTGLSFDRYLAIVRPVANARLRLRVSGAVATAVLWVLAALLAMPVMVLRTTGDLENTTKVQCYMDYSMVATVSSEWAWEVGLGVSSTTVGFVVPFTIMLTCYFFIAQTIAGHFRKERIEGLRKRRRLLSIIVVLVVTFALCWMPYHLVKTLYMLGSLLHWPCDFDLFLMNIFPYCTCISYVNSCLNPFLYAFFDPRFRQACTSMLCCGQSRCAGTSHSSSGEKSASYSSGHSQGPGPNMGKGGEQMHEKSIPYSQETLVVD
row,Compound,pEC50
1,"CCCCc1nc(=O)c(S(=O)(=O)c2ccc(-c3cccnc3C)cc2)c(O)n1[C@H]1CCc2c(C#N)cccc21 [Example 539, (1S)-1-{2-butyl-6-hydroxy-5-[4-(2-methylpyridin-3-yl)benzenesulfonyl]-4-oxo-1,4-dihydropyrimidin-1-yl}-2,3-dihydro-1H-indene-4-carbonitrile]",8.00 to 11.00
2,"CCCCc1nc(=O)c(S(=O)(=O)c2ccc(-c3ccc(F)nc3C)cc2)c(O)n1[C@H]1CCc2c(C#N)cccc21 [Example 540, (1S)-1-{2-butyl-5-[4-(6-fluoro-2-methylpyridin-3-yl)benzenesulfonyl]-6-hydroxy-4-oxo-1,4-dihydropyrimidin-1-yl}-2,3-dihydro-1H-indene-4-carbonitrile]",8.00 to 11.00
3,"CCCCc1nc(=O)c(S(=O)(=O)c2ccc(-c3ccncc3C)cc2)c(O)n1[C@H]1CCc2c(C#N)cccc21 [Example 541, (1S)-1-{2-butyl-6-hydroxy-5-[4-(3-methylpyridin-4-yl)benzenesulfonyl]-4-oxo-1,4-dihydropyrimidin-1-yl}-2,3-dihydro-1H-indene-4-carbonitrile]",8.00 to 11.00
4,"CCCCc1nc(=O)c(S(=O)(=O)c2ccc(-c3ccnc(F)c3C)cc2)c(O)n1[C@@H]1CCc2ccc(C#N)cc21 [Example 542, (3R)-3-{2-butyl-5-[4-(2-fluoro-3-methylpyridin-4-yl)benzenesulfonyl]-6-hydroxy-4-oxo-1,4-dihydropyrimidin-1-yl}-2,3-dihydro-1H-indene-5-carbonitrile]",7.00 to 8.00
5,"CCCCc1nc(=O)c(S(=O)(=O)c2ccc(-c3cccc(C(=O)NC)c3)cc2)c(O)n1[C@@H]1CCc2ccc(C#N)cc21 [Example 543, 4′-({2-butyl-1-[(1R)-6-cyano-2,3-dihydro-1H-inden-1-yl]-6-hydroxy-4-oxo-1,4-dihydropyrimidin-5-yl}sulfonyl)-N-methyl-[1,1′-biphenyl]-3-carboxamide]",7.00 to 8.00
6,"CCCCc1nc(=O)c(S(=O)(=O)c2ccc(-c3ccncc3C)cc2)c(O)n1[C@@H]1CCc2ccc(C#N)cc21 [Example 544, (3R)-3-{2-butyl-6-hydroxy-5-[4-(3-methylpyridin-4-yl)benzenesulfonyl]-4-oxo-1,4-dihydropyrimidin-1-yl}-2,3-dihydro-1H-indene-5-carbonitrile]",7.00 to 8.00
7,"CCCCc1nc(=O)c(S(=O)(=O)c2ccc(-c3ccc(C(=O)NC)cc3F)cc2)c(O)n1[C@@H](CC)c1cccc(C#N)c1 [Example 545, 4′-({2-butyl-1-[(1S)-1-(3-cyanophenyl)propyl]-6-hydroxy-4-oxo-1,4-dihydropyrimidin-5-yl}sulfonyl)-2-fluoro-N-methyl-[1,1′-biphenyl]-4-carboxamide]",8.00 to 11.00
8,"CCCCc1nc(=O)c(S(=O)(=O)c2ccc(-c3ccc(F)nc3C)cc2)c(O)n1[C@@H]1CCc2ccc(C#N)cc21 [Example 546, (3R)-3-{2-butyl-5-[4-(6-fluoro-2-methylpyridin-3-yl)benzenesulfonyl]-6-hydroxy-4-oxo-1,4-dihydropyrimidin-1-yl}-2,3-dihydro-1H-indene-5-carbonitrile]",6.52 to 7.00
9,"CCCCc1nc(=O)c(S(=O)(=O)c2ccc(-c3cccnc3C)cc2)c(O)n1[C@@H]1CCc2ccc(C#N)cc21 [Example 547, (3R)-3-{2-butyl-6-hydroxy-5-[4-(2-methylpyridin-3-yl)benzenesulfonyl]-4-oxo-1,4-dihydropyrimidin-1-yl}-2,3-dihydro-1H-indene-5-carbonitrile]",7.00 to 8.00
10,"CCCCc1nc(=O)c(S(=O)(=O)c2ccc(-c3ccccc3C(=O)NC)cc2)c(O)n1[C@@H]1CCc2ccc(C#N)cc21 [Example 548, 4′-({2-butyl-1-[(1R)-6-cyano-2,3-dihydro-1H-inden-1-yl]-6-hydroxy-4-oxo-1,4-dihydropyrimidin-5-y1}sulfonyl)-N-methyl-[1,1′-biphenyl]-2-carboxamide]",7.00 to 8.00
11,"CCCCc1nc(=O)c(S(=O)(=O)c2ccc(-c3ccnc(F)c3C)cc2)c(O)n1[C@@H](CC)c1cccc(C#N)n1 [Example 549, 6-[(1S)-1-{2-butyl-5-[4-(2-fluoro-3-methylpyridin-4-yI)benzenesulfonyl]-6-hydroxy-4-oxo-1,4-dihydropyrimidin-1-yl}propyl]pyridine-2-carbonitrile]",8.00 to 11.00
12,"CCCCc1nc(=O)c(S(=O)(=O)c2ccc(-c3ccncc3C)cc2)c(O)n1[C@@H](CC)c1cccc(C#N)n1 [Example 550, 6-[(1S)-1-{2-butyl-6-hydroxy-5-[4-(3-methylpyridin-4-yl)benzenesulfonyl]-4-oxo-1,4-dihydropyrimidin-1-yl}propyl]pyridine-2-carbonitrile]",8.00 to 11.00
13,"CCCCc1nc(=O)c(S(=O)(=O)c2ccc(-c3ccccc3C(=O)NC)cc2)c(O)n1[C@@H](CC)c1cccc(C#N)n1 [Example 551, 4′-({2-butyl-1-[(1S)-1-(6-cyanopyridin-2-yl)propyl]-6-hydroxy-4-oxo-1,4-dihydropyrimidin-5-yl}sulfonyl)-N-methyl-[1,1′-biphenyl]-2-carboxamide]",8.00 to 11.00
14,"CCCCc1nc(=O)c(S(=O)(=O)c2ccc(-c3cccc(C(=O)NC)c3)cc2)c(O)n1[C@@H](CC)c1cccc(C#N)n1 [Example 552, 4′-({2-butyl-1-[(1S)-1-(6-cyanopyridin-2-yl)propyl]-6-hydroxy-4-oxo-1,4-dihydropyrimidin-5-yl}sulfonyl)-N-methyl-[1,1′-biphenyl]-3-carboxamide]",8.00 to 11.00
15,"CCCCc1nc(=O)c(S(=O)(=O)[C@H]2CC[C@H](O)CC2)c(O)n1-c1c(CC)cccc1CC [Example 553, 2-butyl-1-(2,6-diethylphenyl)-6-hydroxy-5-{[(1r,4r)-4-hydroxycyclohexyl]sulfonyl}-1,4-dihydropyrimidin-4-one]",8.00 to 11.00
16,"CCCCc1nc(=O)c(S(=O)(=O)[C@H]2CC[C@@H](O)CC2)c(O)n1-c1c(CC)cccc1CC [Example 554, 2-butyl-1-(2,6-diethylphenyl)-6-hydroxy-5-{[(1s,4s)-4-hydroxycyclohexyl]sulfonyl}-1,4-dihydropyrimidin-4-one]",8.00 to 11.00
17,"CCCCc1nc(=O)c(S(=O)(=O)[C@H]2CC[C@@H](O)CC2)c(O)n1-c1c(OC)cccc1OC [Example 555, 2-butyl-1-(2,6-dimethoxyphenyl)-6-hydroxy-5-{[(1s,4s)-4-hydroxycyclohexyl]sulfonyl}-1,4-dihydropyrimidin-4-one]",8.00 to 11.00
18,"CCCCc1nc(=O)c(S(=O)(=O)[C@H]2CC[C@H](O)CC2)c(O)n1-c1c(OC)cccc1OC [Example 556, 2-butyl-1-(2,6-dimethoxyphenyl)-6-hydroxy-5-{[(1r,4r)-4-hydroxycyclohexyl]sulfonyl}-1,4-dihydropyrimidin-4-one]",8.00 to 11.00
